“Also recorded” adds a separate entry of the source. Read-outs that look alike come from different tables or passages of the source.
Tests used:
[1] = target: β-N-acetylglucosaminidase; settings: literature value (Wong et al. 1995); read-out: Ki as inhibitor of β-N-acetylglucosaminidase; cited from earlier work
[2] = target: T1, α-fucosidase (Bos taurus, UniProt Q2KIM0); settings: literature value (Fleet et al. 1985); read-out: Ki as inhibitor of α-fucosidase; cited from earlier work
T1 sequence (Q2KIM0 23-468): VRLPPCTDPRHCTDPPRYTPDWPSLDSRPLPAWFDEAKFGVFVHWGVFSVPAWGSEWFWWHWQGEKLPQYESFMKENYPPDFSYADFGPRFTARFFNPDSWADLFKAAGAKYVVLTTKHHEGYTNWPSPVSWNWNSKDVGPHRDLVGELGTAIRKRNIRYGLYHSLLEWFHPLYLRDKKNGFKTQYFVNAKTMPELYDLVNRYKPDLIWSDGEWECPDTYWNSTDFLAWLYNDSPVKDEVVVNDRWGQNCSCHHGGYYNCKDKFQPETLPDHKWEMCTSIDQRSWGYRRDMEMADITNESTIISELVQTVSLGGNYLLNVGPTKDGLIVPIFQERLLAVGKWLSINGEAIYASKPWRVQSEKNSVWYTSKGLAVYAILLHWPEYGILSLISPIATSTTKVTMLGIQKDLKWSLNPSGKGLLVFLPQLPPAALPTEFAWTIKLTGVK

[3] = target: β-galactosidase; settings: read-out: Ki as inhibitor of β-galactosidase; literature value (Bernotas et al. 1987); cited from earlier work
[4] = target: T2, HIV protease (Human immunodeficiency virus type 1 group M subtype B, UniProt P03369); type: biochemical, HIV-1
T2 construct: a backbone engineered HIV-1 protease was prepared by total synthesis; made in house; host or cells: total chemical synthesis (no expression host)
Method: For determination of IC50 values for HIV protease, a backbone engineered HIV-1 protease was prepared by total synthesis (Schnolzer et al. Science 1992, 256, 221) 450 nM Final concentration of the protease was added to a solution (152 μL final volume) containing tetrahydroxyazepane (inhibitor), 28 μM fluorogenic peptide substrate (Abz-Thr-Ile-Phe-(p-NO2)-Gln-Arg-NH2) (Tith et al. Int. J. Peptide Protein Res. 1990, 36, 544; Slee, et al. J. Am. Chem. Soc. 1995, 117, 11867) and 1.8% dimethyl sulfoxide in assay buffer: 100 mM MES buffer containing 0.5 mg/mL BSA (bovine serum album) at pH 5.5. A Km of 37±8 μM was reported for the synthetic HIV protease against the above fluorogenic substrate. The solution was mixed and incubated over 5 minutes at 37° C. during which time the rate of substrate cleavage was monitored by continuously recording the change in fluorescence of the assay solution. An excitation filter of 325 nm and an emission filter of 420 nm were used. For each inhibitor concentration, three measurements were carried out.

[5] = target: β-N-acetylglucosaminidase; assay: Glycosidase inhibition analysis, β-N-acetylglucosaminidase; type: biochemical; settings: read-out: Ki as inhibitor of β-N-acetylglucosaminidase
Method: (§1) Inhibition analyses were performed at 37° C. in 0.1 M HEPES buffer, pH=6.8, except for α-fucosidase (assayed at 37° C. in 50 mM sodium acetate buffer, pH 6.0). The amount of enzyme added in each assay was 0.05 units (0.1 units for β-galactosidase and α-fucosidase). […] Data were collected and fitted to a Michaelis-Menten curve by using the program HyperCleland for enzyme kinetics analysis (Cleland, W. W. Methods Enzymol. 1979, 63, 103).

[6] = system: glycosidases; assay: Glycosidase inhibition analysis, panel of glycosidases; type: biochemical
Method: as §1

[7] = target: β-galactosidase; assay: Glycosidase inhibition analysis, β-galactosidase; type: biochemical; settings: read-out: Ki as inhibitor of β-galactosidase
Method: as §1

[8] = target: T3, FIV protease (Feline immunodeficiency virus, UniProt P16088); assay: FIV protease inhibition, fluorogenic peptide substrate; type: biochemical
T3 construct: enzymatic activity of recombinantly derived FIV protease; made in house
Method: The inhibitory effects of compounds 60a, 60b, 64a, 64b, 65a, and 65b on the enzymatic activity of recombinantly derived FIV protease (Slee et al. J. Am. Chem. Soc. 1995, 117, 11867) were studied using a fluorogenic assay based on the enzymatic cleavage of a novel peptide based substrate [Arg-Ala-Leu-Thr-Lys(aminobenzyl)-[…]. Inhibition studies were carried out at a single substrate concentration (20 μM) in a 50 mM sodium citrate/100 mM sodium phosphate buffer (pH 5.3) containing 2% DMSO and 1M sodium chloride. The same wavelengths were used for detections. […] IC50 values were determined by least squares analysis of Dixon Plots (Dixon, M. J. Biochem. 1953, 55, 170).

Compound | inhibition of the HIV protease (in words) [4] | inhibition of the glycosidases (in words) [6] | also measured
CC(=O)N1C[C@H](O)[C@@H](O)[C@H](O)[C@H]1CO [1-deoxy-N-acetylglucojirimycin] |  |  | Ki [1]: 9.8 µM
C[C@@H]1NC[C@@H](O)[C@H](O)[C@@H]1O [1-deoxyfucojirimycin] |  |  | Ki [2]: 0.005 µM
OC[C@H]1NC[C@H](O)[C@@H](O)[C@H]1O [1-deoxygalactojirimycin] |  |  | Ki [3]: > 1000 µM
OC1CNCC(O)C(O)C1O [Compound 3, (3R,4R,5R,6R)-tetrahydroxyazepane] | not inhibitors; also recorded: did not show inhibitory activities |  | Ki [5]: 4.6 µM
O[C@H]1[C@H](O)[C@@H](O)CNC[C@@H]1O [Compound 6, (3S,4R,5R,6S)-3,4,5,6-Tetrahydroxyazepane] | not inhibitors; also recorded: did not show inhibitory activities | inhibits all glycosidases | Ki [7]: 6.5 µM
O[C@H]1[C@H](O)[C@H](O)CN(Cc2ccccc2)C[C@H]1O [Compound 7, (3R,4R,5R,6R)-N-Benzyl-3,4,5,6-tetrahydroxyazepane] | not inhibitors | does not improve inhibition activity except in the case of α-fucosidase | 
O[C@H]1[C@H](O)[C@@H](O)CN(Cc2ccccc2)C[C@@H]1O [Compound 8, (3S,4R,5R,6S)-N-Benzyl-3,4,5,6-tetrahydroxyazepane] | not inhibitors | does not improve inhibition activity except in the case of α-fucosidase | 
CO[C@@H]1CN[C@H](CO)[C@@H](O)[C@H]1O [Compound 28, 2-O-methyl-1-deoxy-D-mannojirimycin] |  | None of these two azasugars exhibited significant inhibition | 
CO[C@H]1CN[C@@H](CO)[C@H](O)[C@@H]1O [Compound 29, 2-O-methyl-1-deoxy-L-mannojirimycin] |  | None of these two azasugars exhibited significant inhibition | 
O[C@@H]1[C@@H](O)[C@@H](OCc2cccc(F)c2)CNC[C@@H]1OCc1cccc(F)c1 [Compound 60a, (3S,4R,5R,6S)-3,6-di-O-(3′-fluorobenzyl)-3,4,5,6-tetrahydroxyazepane] | inhibit | not inhibitors | IC50 against FIV protease [8]: inceased compared to their inhibitory activity to the HIV protease; inhibition of FIV protease (in words) [8]: active
O[C@@H]1[C@@H](O)[C@@H](OCc2cc(F)cc(F)c2)CNC[C@@H]1OCc1cc(F)cc(F)c1 [Compound 60b, (3S,4R,5R,6S)-3,6-di-O-(3′,5′-difluorobenzyl)-3,4,5,6-tetrahydroxyazepane] | inhibit | not inhibitors | Ki [4]: ~350 µM; IC50 against FIV protease [8]: inceased compared to their inhibitory activity to the HIV protease; inhibition of FIV protease (in words) [8]: active
CN1C[C@H](OCc2cccc(F)c2)[C@H](O)[C@@H](O)[C@@H](OCc2cccc(F)c2)C1 [Compound 64a, (3S,4R,5R,6S)-3,6-di-O-(3′-Fluorobenzyl)-N-methyl-3,4,5,6-tetrahydroxyazepane] | inhibit | not inhibitors | 
CN1C[C@H](OCc2cc(F)cc(F)c2)[C@H](O)[C@@H](O)[C@@H](OCc2cc(F)cc(F)c2)C1 [Compound 64b, (3S,4R,5R,6S)-3,6-di-O-(3′,5′-difluorobenzyl)-N-methyl-3,4,5,6-tetrahydroxyazepane] | inhibit | not inhibitors | 
C[N+]1([O-])C[C@H](OCc2cccc(F)c2)[C@H](O)[C@@H](O)[C@@H](OCc2cccc(F)c2)C1 (stereo partly drawn) [Compound 65a, (3S,4R,5R,6S)-3,6-di-O-(3′-Fluorobenzyl)-N-methyl-3,4,5,6-tetrahydroxyazepane N-oxide] | inhibit | not inhibitors | 
C[N+]1([O-])C[C@H](OCc2cc(F)cc(F)c2)[C@H](O)[C@@H](O)[C@@H](OCc2cc(F)cc(F)c2)C1 (stereo partly drawn) [Compound 65b, (3S,4R,5R,6S)-3,6-di-O-(3′,5′-difluorobenzyl)-N-methyl-3,4,5,6-tetrahydroxyazepane N-oxide] | inhibit | not inhibitors | 

Reference: patent US6462193B1, “Hydroxyazepanes as inhibitors of glycosidase and HIV protease” (The Scripps Research Institute, priority 1999, dated 2002)
